Reference: patent publication US5034380A, “Alkoxymethylidene epipodophyllotoxin glucosides” (Bristol-Myers Squibb Company, priority 1989, dated 1991)
Values after ≈ are worked out from the molar mass of the structure shown.

Legend:
[1] = tested on: murine transplantable P388 leukemia; test: in vivo antitumor activity against P388 leukemia in mice (single ip dose, median survival time); parameters: species or system murine (female CDF1 mice); settings: Q1D × 1, ip; for T/C % of MST: day 1
Method: Representative compounds of the present invention were evaluated for antitumor activity against murine transplantable P388 leukemia. Female CDF1 mice were inoculated intraperitoneally with approximately 10^6 P388 leukemic cells (day 0). […] The percent increase of median survival time (MST) of treated animals over that of untreated control animals was determined and reported as % T/C. Compounds showing % T/C values of 125 or greater are considered to have significant antitumor activity.

[2] = tested on: B16-F10 murine melanoma; test: in vitro cytotoxicity, B16-F10 murine melanoma; assay type: cell-based; settings: Mus musculus; B16-F10, 72 hours, neutral red
Method: (§1) Representative compounds of the present invention were also tested in in vitro cytotoxicity assays against four tumor cell lines. These cell lines were grown and maintained at 37° C. under a humidified atmosphere in a 5% CO2 incubator:
B16-F10 murine melanoma in Eagle's MEM medium (Nissui) containing kanamycin (60 μg/ml) and supplemented with heat-inactivated fetal calf serum (FCS, 10 %) and non-essential amino acids (0.6 %);
(§2) In experiments using the B16-F10 and Moser cell lines, exponentially growing cells were harvested, counted and suspended in the culture medium at a concentration of 1.5×10^4 and 3×10^4 cells/ml, respectively. Twenty-four hours after planting cell suspension (180 μl) into wells of a 96-well microtiter plate, test materials (20 μl) were added to the wells and the plates were incubated for 72 hours. Cytotoxicity against the tumor cells was colorimetrically determined at 540 nm after staining viable cells with neutral red solution. For the K562 and K562/ADM cell lines, 900 μl of the cell suspension (8×10^4 cells/ml) was incubated with test materials (100 μl) at 37° C., 5% CO2 for 48 hours in a 24-well tissue culture plate. Cytotoxicity was determined by counting the number of cells using a cell counter.

[3] = tested on: Moser human colon carcinoma; test: in vitro cytotoxicity, Moser human colon carcinoma; assay type: cell-based; settings: 72 hours, neutral red
Method: as §1
Moser human colon carcinoma in Eagle's MEM medium supplemented with FCS (10 %);
as §2

[4] = tested on: K562 human myelogenous leukemia; test: in vitro cytotoxicity, K562 human myelogenous leukemia; assay type: cell-based; settings: K562, 48 hours, cell counter
Method: as §1
(§3) K562 human myelogenous leukemia and K562/ADM, an adriamycin-resistant subline which was kindly provided by Dr. Takashi Tsuruo (University of Tokyo) in RPMI 1640 medium (Nissui) supplemented with FCS (10 %), penicillin (100 U/ml) and streptomycin (100 μg/ml).
as §2

[5] = tested on: K562/ADM, an adriamycin-resistant subline; test: in vitro cytotoxicity, K562/ADM adriamycin-resistant subline; assay type: cell-based; settings: Homo sapiens, 48 hours, cell counter
Method: as §1, §3, §2

| SMILES | T/C % of MST ([1]; 0.1 mg/kg) [%] | T/C % of MST ([1]; 0.3 mg/kg) [%] | T/C % of MST ([1]; 1 mg/kg) [%] | T/C % of MST ([1]; 3 mg/kg) [%] | T/C % of MST ([1]; 10 mg/kg) [%] | T/C % of MST ([1]; 30 mg/kg) [%] | T/C % of MST ([1]; 60 mg/kg) [%] | T/C % of MST ([1]; 120 mg/kg) [%] | IC50 [2] [µg/mL] | IC50 [3] [µg/mL] | IC50 [4] [µg/mL] | IC50 [5] [µg/mL] | Number of survivors/tested on day 50 ([1]; 120 mg/kg) |
| --- | --- | --- | --- | --- | --- | --- | --- | --- | --- | --- | --- | --- | --- |
| COc1cc([C@@H]2c3cc4c(cc3[C@@H](O[C@@H]3O[C@@H]5CO[C@H](OC)O[C@H]5[C@H](O)[C@H]3O)[C@H]3COC(=O)[C@H]23)OCO4)cc(OC)c1O [Compound 1a, 4'-Demethyl-4-O-(4,6-O-β-Methoxymethylidene-β-D-Glucopyranosyl)Epipodophyllotoxin] | 115 | 132 | 137 | 142 | 149 | 166 | 195 | 248 | 0.094 (≈ 0.155 µM) | – | – | – | – |
| COc1cc([C@@H]2c3cc4c(cc3[C@@H](O[C@@H]3O[C@@H]5CO[C@@H](OC)O[C@H]5[C@H](O)[C@H]3O)[C@H]3COC(=O)[C@H]23)OCO4)cc(OC)c1O [Compound 1b, 4'-Demethyl-4-O-(4,6-O-α-Methoxymethylidene-β-D-Glucopyranosyl)EpipodophYllotoxin] | 110 | 120 | 130 | 145 | 165 | 180 | – | – | 0.27 (≈ 0.447 µM) | 3.4 (≈ 5.62 µM) | – | – | – |
| CCO[C@H]1OC[C@H]2O[C@@H](O[C@@H]3c4cc5c(cc4[C@@H](c4cc(OC)c(O)c(OC)c4)[C@H]4C(=O)OC[C@@H]43)OCO5)[C@H](O)[C@@H](O)[C@@H]2O1 [Compound 2a, 4'-Demethyl-4-O-(4,6-O-β-Ethoxymethylidene-β-D-Glucopyranosyl)Epipodophyllotoxin] | 114 | 119 | 124 | 133 | 148 | 171 | 181 | 214 | 0.11 (≈ 0.178 µM) | 1.7 (≈ 2.75 µM) | 0.065 (≈ 0.105 µM) | > 50 | – |
| CCO[C@@H]1OC[C@H]2O[C@@H](O[C@@H]3c4cc5c(cc4[C@@H](c4cc(OC)c(O)c(OC)c4)[C@H]4C(=O)OC[C@@H]43)OCO5)[C@H](O)[C@@H](O)[C@@H]2O1 [Compound 2b, 4'-Demethyl-4-O-(4,6-O-α-Ethoxymethylidene-α-D-Glucopyranosyl)Epipodophyllotoxin] | 114 | 114 | 119 | 138 | 143 | 167 | 200 | 219 | 0.54 (≈ 0.873 µM) | 2.2 (≈ 3.56 µM) | 0.18 (≈ 0.291 µM) | > 50 | 1/4 |
| COc1cc([C@@H]2c3cc4c(cc3[C@@H](O[C@@H]3O[C@@H]5COC(OC)(OC)O[C@H]5[C@H](O)[C@H]3O)[C@H]3COC(=O)[C@H]23)OCO4)cc(OC)c1O [Compound 3, 4'-Demethyl-4-O-(4,6-O-Dimethoxymethylidene-β-D-Glucopyranosyl)Epipodophyllotoxin] | 125 | 135 | 135 | 140 | 170 | 190 | 170 | 210 | 2.7 (≈ 4.25 µM) | 3.3 (≈ 5.2 µM) | – | – | 1/4 |
| CCOC1(OCC)OC[C@H]2O[C@@H](O[C@@H]3c4cc5c(cc4[C@@H](c4cc(OC)c(O)c(OC)c4)[C@H]4C(=O)OC[C@@H]43)OCO5)[C@H](O)[C@@H](O)[C@@H]2O1 [Compound 4, 4'-Demethyl-4-O-(4,6-Diethoxymethylidene-β-D-Glucopvranosyl)Epipodophyllotoxin] | 100 | 109 | 127 | 132 | 136 | 145 | 150 | 182 | 7.3 (≈ 11 µM) | 3 (≈ 4.53 µM) | 0.082 (≈ 0.124 µM) | 32 (≈ 48.3 µM) | – |
| COc1cc([C@@H]2c3cc4c(cc3[C@@H](O[C@@H]3O[C@@H]5CO[C@@H](C)O[C@H]5[C@H](O)[C@H]3O)[C@H]3COC(=O)[C@H]23)OCO4)cc(OC)c1O [Etoposide, reference compound] | 120 | 130 | 136 | 143 | 163 | 185 | 212 | 288 | – | – | – | – | – |
